Data on one compound can be found in article PMC6985722 (Antimicrobial Agents and Chemotherapy, 2020).

Each structure is given as a SMILES string.

The test system of the experiment is RSV-A (panel of 10 clinical strains). Briefly: In vitro susceptibility of RSV by plaque assay, RSV-A. The note with it: human respiratory syncytial virus. It counts as cell-based. As to the method:
Previous RSV challenge studies achieved antiviral efficacy with peripheral blood trough exposure levels over 3× the protein binding-adjusted in vitro EC90 ([12]). Based on the phase 1 PK data, this level of exposure was predicted to be achieved on or after the first dose in the majority of subjects with a 200-mg dose and to be met or exceeded on or after the first dose in all subjects with a 350-mg dose. The in vitro EC90 was determined using a panel of clinical isolates of RSV (Table S7).
EC50 range (nM) EC90 range (nM)
EC50 and EC 90 were determined by plaque assay.
EC50, 50% effective concentration; EC90, 90% effective concentration; RSV, respiratory

For `NCc1ccc2c(c1)nc(CN1C(=O)C3(CC3)c3ccc(F)cc31)n2CCCC(F)(F)F` [RV521], where the note is “read-out: EC50 range”, the EC50 lay in the range of 0.3 to 1 nM. Further, under “read-out: EC90 range”, the EC90 lay in the range of 2.5 to 5.6 nM.
